Consider four molecules from BindingDB's records for doi:10.1021/jm701275z (University of Athens, 2008).

This test has as its target Angiotensin-converting enzyme (Homo sapiens, UniProt P12821). Kind of test: Enzyme Inhibition Assay. The note with it: pH 6.8; 25 °C. The procedure:
Continuous assays were performed by recording the fluorescence increase at 405 nm (excitation@ 320 nm) induced by the cleavage of fluorogenic substrate, using 96-well nonbinding surface plates. Fluorescence signals were monitored using a Fluoroscan Ascent photon counter spectrophotometer (Thermo-Labsystems, Courtaboeuf, France) equipped with a temperature control device and a plate shaker. The substrate and enzyme concentrations for the experiments were chosen so as to remain well below 10% of substrate utilization and to observe initial rates. For each inhibitor, percentage inhibition was determined in triplicate experiments at five inhibitor concentrations, chosen to observe a 20-80% range of inhibition. Ki values were determined using the method proposed by Horovitz and Leviski, as described in Proc. Natl. Acad. Sci. U.S.A. 1987, 84, 6654.

Sequence of Angiotensin-converting enzyme (P12821 whole entry): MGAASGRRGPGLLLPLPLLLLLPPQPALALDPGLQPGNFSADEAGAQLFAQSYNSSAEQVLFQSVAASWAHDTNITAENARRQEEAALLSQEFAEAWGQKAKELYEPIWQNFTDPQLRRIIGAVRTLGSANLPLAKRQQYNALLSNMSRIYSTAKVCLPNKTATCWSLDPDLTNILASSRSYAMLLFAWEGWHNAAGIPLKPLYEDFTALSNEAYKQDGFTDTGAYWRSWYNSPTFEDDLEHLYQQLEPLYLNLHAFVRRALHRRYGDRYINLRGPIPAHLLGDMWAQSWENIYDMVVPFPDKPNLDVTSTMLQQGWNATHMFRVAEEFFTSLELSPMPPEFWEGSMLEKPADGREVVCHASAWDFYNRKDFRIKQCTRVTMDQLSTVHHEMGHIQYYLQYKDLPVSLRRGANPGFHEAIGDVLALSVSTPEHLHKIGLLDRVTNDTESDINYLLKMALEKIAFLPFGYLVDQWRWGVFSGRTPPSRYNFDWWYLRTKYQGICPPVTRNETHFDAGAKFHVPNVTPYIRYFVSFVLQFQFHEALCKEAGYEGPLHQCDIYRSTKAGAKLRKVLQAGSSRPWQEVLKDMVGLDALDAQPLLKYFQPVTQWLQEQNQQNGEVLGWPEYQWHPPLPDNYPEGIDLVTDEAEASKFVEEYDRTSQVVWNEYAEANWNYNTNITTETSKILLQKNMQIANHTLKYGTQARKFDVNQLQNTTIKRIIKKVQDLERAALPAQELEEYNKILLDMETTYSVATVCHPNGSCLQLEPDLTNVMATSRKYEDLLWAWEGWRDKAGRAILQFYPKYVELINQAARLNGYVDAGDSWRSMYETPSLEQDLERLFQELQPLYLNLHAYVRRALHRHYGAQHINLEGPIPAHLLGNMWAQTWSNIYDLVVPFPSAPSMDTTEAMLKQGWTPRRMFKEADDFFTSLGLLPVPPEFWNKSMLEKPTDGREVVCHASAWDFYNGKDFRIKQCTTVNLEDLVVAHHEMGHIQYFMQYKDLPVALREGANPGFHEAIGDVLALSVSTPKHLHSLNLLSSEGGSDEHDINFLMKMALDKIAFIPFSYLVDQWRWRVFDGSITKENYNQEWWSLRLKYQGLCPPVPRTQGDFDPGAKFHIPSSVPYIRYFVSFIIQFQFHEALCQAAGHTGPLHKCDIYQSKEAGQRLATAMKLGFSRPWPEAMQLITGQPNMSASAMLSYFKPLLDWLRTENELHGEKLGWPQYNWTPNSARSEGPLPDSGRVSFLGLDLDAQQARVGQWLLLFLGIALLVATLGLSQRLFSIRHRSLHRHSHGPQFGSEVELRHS

Usually Ki stands for a dissociation constant, usually derived from enzyme kinetics or from competition with a known ligand. High values mean lower affinity, low ones higher affinity. Regarding `CC(=O)NC(Cc1c[nH]cn1)C(=O)N1CCCC1P(=O)(O)CC(Cc1cc(-c2ccccc2)no1)C(=O)O` (centres undefined) [3-({1-[2-acetamido-3-(1H-imidazol-4-yl)propanoyl]pyrrolidin-2-yl}(hydroxy)phosphoryl)-2-[(3-phenyl-1,2-oxazol-5-yl)methyl]propanoic acid], the Ki is above 10 µM.
`CC(=O)NC(CC(C)C)C(=O)N1CCCC1P(=O)(O)CC(Cc1cc(-c2ccccc2)no1)C(=O)O` (centres undefined) [3-{[1-(2-acetamido-4-methylpentanoyl)pyrrolidin-2-yl](hydroxy)phosphoryl}-2-[(3-phenyl-1,2-oxazol-5-yl)methyl]propanoic acid] yielded a Ki above 10 µM.
Next, `CC(=O)NC(CC(C)C)C(=O)N1CCCC1P(=O)(O)CC(Cc1ccccc1)C(=O)O` (centres undefined) [The second fraction of the HPLC chromatogram.]: above 10 µM; `CC(=O)NC(Cc1c[nH]cn1)C(=O)N1CCCC1P(=O)(O)CC(Cc1ccccc1)C(=O)O` (centres undefined) [The second fraction of the HPLC chromatogram.]: above 10 µM.
